Here are results for 21 compounds from patent US20230143596A1, “PESTICIDALLY ACTIVE DIAZINE-BISAMIDE COMPOUNDS” (SYNGENTA CROP PROTECTION AG, priority 2020, published 2023).

The test system of series [1] is Chilo suppressalis. Kind of series: Example B3: Chilo suppressalis (striped rice stemborer), artificial diet. It counts as in vivo. Particulars: 144 h, application rate 200 ppm, L2 larvae, 6 days after infestation, vs untreated, read-out: control in at least one of the three categories (mortality, anti-feedant effect, or growth inhibition). As for the experimental part: Example B3: Chilo suppressalis (Striped Rice Stemborer)
24-well microtiter plates with artificial diet were treated with aqueous test solutions prepared from 10′000 ppm DMSO stock solutions by pipetting. After drying, the plates were infested with L2 larvae (6-8 per well). The samples were assessed for mortality, anti-feeding effect, and growth inhibition in comparison to untreated samples 6 days after infestation. Control of Chilo suppressalis by a test sample is given when at least one of the categories mortality, anti-feedant effect, and growth inhibition is higher than the untreated sample.

Series [2] concerns Spodoptera littoralis. Kind of series: Example B6: Spodoptera littoralis (Egyptian cotton leaf worm), cotton leaf discs sprayed. The format is in vivo. Conditions: foliar, 72 h, application rate 200 ppm, L1 larvae, 3 days after infestation, vs untreated, read-out: control in at least one of the three categories (mortality, anti-feedant effect, or growth inhibition). The procedure: Example B6: Spodoptera littoralis (Egyptian Cotton Leaf Worm)
Cotton leaf discs were placed onto agar in 24-well microtiter plates and sprayed with aqueous test solutions prepared from 10′000 ppm DMSO stock solutions. After drying the leaf discs were infested with five L1 larvae. The samples were assessed for mortality, anti-feeding effect, and growth inhibition in comparison to untreated samples 3 days after infestation. Control of Spodoptera littoralis by a test sample is given when at least one of the categories mortality, anti-feedant effect, and growth inhibition is higher than the untreated sample.

The test system of series [3] is Plutella xylostella. Kind of series: Example B4: Plutella xylostella (diamond back moth), artificial diet. The format is in vivo. Conditions: 192 h, application rate 200 ppm, eggs, 8 days after infestation, vs untreated, read-out: control in at least one of the two categories (mortality or growth inhibition). As for the experimental part:
Example B4: Plutella xylostella (Diamond Back Moth)
24-well microtiter plates with artificial diet were treated with aqueous test solutions prepared from 10′000 ppm DMSO stock solutions by pipetting. After drying, Plutella eggs were pipetted through a plastic stencil onto a gel blotting paper and the plate was closed with it. The samples were assessed for mortality and growth inhibition in comparison to untreated samples 8 days after infestation. The following compounds gave an effect of at least 80% control in at least one of the two categories (mortality or growth inhibition) at an application rate of 200 ppm: […]

Series [4] deals with Euschistus heros. Kind of series: Example B2: Euschistus heros (neotropical brown stink bug), soybean leaves sprayed. The format is in vivo. Conditions: 120 h, application rate 200 ppm, N2 nymphs, 5 days after infestation, vs untreated, read-out: control in at least one of the two categories (mortality or growth inhibition). The procedure: Example B2: Euschistus heros (Neotropical Brown Stink Bug)
Soybean leaves on agar in 24-well microtiter plates were sprayed with aqueous test solutions prepared from 10′000 ppm DMSO stock solutions. After drying the leaves were infested with N2 nymphs. The samples were assessed for mortality and growth inhibition in comparison to untreated samples 5 days after infestation.
(§1) The following compounds gave an effect of at least 80% control in at least one of the two categories (mortality or growth inhibition) at an application rate of 200 ppm: […]

Series [5] concerns Diabrotica balteata. Kind of series: Example B1: Diabrotica balteata (corn root worm), maize sprouts sprayed. The format is in vivo. Particulars: 96 h, application rate 200 ppm, L2 larvae, 4 days after infestation, vs untreated, read-out: control in at least one of the two categories (mortality or growth inhibition). The procedure:
Example B1: Diabrotica balteata (Corn Root Worm)
Maize sprouts placed onto an agar layer in 24-well microtiter plates were treated with aqueous test solutions prepared from 10′000 ppm DMSO stock solutions by spraying. After drying, the plates were infested with L2 larvae (6 to 10 per well). The samples were assessed for mortality and growth inhibition in comparison to untreated samples 4 days after infestation.
as §1

Some results are limits rather than exact numbers.

What is called melting point is the temperature of the solid-liquid transition. `CC(NC(=O)c1cc(C(F)(F)F)cc(C(F)(F)F)c1)c1nccnc1C(=O)NC1(C#N)CC1` (stereo not shown) [P.16, 3-[1-[[3,5-bis(trifluoromethyl)benzoyl]amino]ethyl]-N-(1-cyanocyclopropyl)pyrazine-2-carboxamide] yielded a melting point of 123 °C.
Compound `CC(NC(=O)c1cc(C(F)(F)F)cc(C(F)(F)F)c1)c1nccnc1C(=O)NC1COC1` (stereo not shown) [P.20, 3-[1-[[3,5-bis(trifluoromethyl)benzoyl]amino]ethyl]-N-(oxetan-3-yl)pyrazine-2-carboxamide] returned a melting point of 68 °C.
The same measure, in the same setting: as for `CNC(=O)c1nccnc1C(C)NC(=O)c1cc(C(F)(F)F)cc(C(F)(F)F)c1` (stereo not shown) [P.19, 3-[1-[[3,5-bis(trifluoromethyl)benzoyl]amino]ethyl]-N-methyl-pyrazine-2-carboxamide], the figure is 164 °C; as for `CCN(C)C(=O)c1nccnc1C(C)NC(=O)c1cc(C(F)(F)F)cc(C(F)(F)F)c1` (stereo not shown) [P.13, 3-[1-[[3,5-bis(trifluoromethyl)benzoyl]amino]ethyl]-N-ethyl-N-methyl-pyrazine-2-carboxamide], 75 °C.
With `CC(NC(=O)c1cc(C(F)(F)F)cc(C(F)(F)F)c1)c1nccnc1C(=O)NCCC#N` (stereo not shown) [P.21, 3-[1-[[3,5-bis(trifluoromethyl)benzoyl]amino]ethyl]-N-(2-cyanoethyl) pyrazine-2-carboxamide], the melting point was determined as 156 °C.
Same read-out and setting: as for `CCNC(=O)c1nccnc1C(C)NC(=O)c1cc(OCC(F)F)cc(C(F)(F)F)c1` (stereo not shown) [P.9, 3-[1-[[3-(2,2-difluoroethoxy)-5-(trifluoromethyl)benzoyl]amino]ethyl]-N-ethyl-pyrazine-2-carboxamide], the figure is 134 °C.
For the compound `CCCCNC(=O)c1nccnc1C(C)NC(=O)c1cc(C(F)(F)F)cc(C(F)(F)F)c1` (stereo not shown) [Compound P3, 3-[1-[[3,5-bis(trifluoromethyl)benzoyl]amino]ethyl]-N-butyl-pyrazine-2-carboxamide], the percent control (mortality, anti-feedant effect or growth inhibition) at 200 ppm in series [1] is no less than 80%.
The compound `COCC(C)NC(=O)c1nccnc1C(C)NC(=O)c1cc(C(F)(F)F)cc(C(F)(F)F)c1` (stereo not shown) [P.18, 3-[1-[[3,5-bis(trifluoromethyl)benzoyl]amino]ethyl]-N-(2-methoxy-1-methyl-ethyl)pyrazine-2-carboxamide] registered a melting point of 127 °C.
As for `CC(NC(=O)c1cc(C(F)(F)F)cc(C(F)(F)F)c1)c1nccnc1C(=O)NC1CC1` (stereo not shown) [Compound P5, 3-[1-[[3,5-bis(trifluoromethyl)benzoyl]amino]ethyl]-N-cyclopropyl-pyrazine-2-carboxamide], the percent control (mortality, anti-feedant effect or growth inhibition) at 200 ppm in series [1] and in series [2] was no less than 80% in each case. Moreover, the percent control (mortality or growth inhibition) at 200 ppm in series [3] is no less than 80%.
Consider `CCNC(=O)c1nccnc1C(C)NC(=O)c1cc(C(F)(F)F)cc(C(F)(F)F)c1` (stereo not shown) [Compound P1, 3-[1-[[3,5-bis(trifluoromethyl)benzoyl]amino]ethyl]-N-ethyl-pyrazine-2-carboxamide], for which the percent control (mortality or growth inhibition) at 200 ppm in series [4], in series [5] and in series [3] was no less than 80% in each case. The percent control (mortality, anti-feedant effect or growth inhibition) at 200 ppm in series [1] and in series [2] was no less than 80% each time.
With `COCC(C)(C)NC(=O)c1nccnc1C(C)NC(=O)c1cc(C(F)(F)F)cc(C(F)(F)F)c1` (stereo not shown) [P.17, 3-[1-[[3,5-bis(trifluoromethyl)benzoyl]amino]ethyl]-N-(2-methoxy-1,1-dimethyl-ethyl)pyrazine-2-carboxamide], the melting point turned out to be 132 °C.
In turn, `CC(NC(=O)c1cc(C(F)(F)F)cc(C(F)(F)F)c1)c1nccnc1C(=O)NC(C)(C)C#N` (stereo not shown) [P.15, 3-[1-[[3,5-bis(trifluoromethyl)benzoyl]amino]ethyl]-N-(1-cyano-1-methyl-ethyl)pyrazine-2-carboxamide] returned a melting point of 195 °C.
Same read-out and setting: as for `CCCNC(=O)c1nccnc1C(C)NC(=O)c1cc(C(F)(F)F)cc(C(F)(F)F)c1` (stereo not shown) [P.2, 3-[1-[[3,5-bis(trifluoromethyl)benzoyl]amino]ethyl]-N-propyl-pyrazine-2-carboxamide], the figure is 127 °C; as for `CC(NC(=O)c1cc(C(F)(F)F)cc(C(F)(F)F)c1)c1nccnc1C(=O)Nc1ccc(C#N)cn1` (stereo not shown) [P.10, 3-[1-[[3,5-bis(trifluoromethyl)benzoyl]amino]ethyl]-N-(5-cyano-2-pyridyl)pyrazine-2-carboxamide], 215 °C.
On the same count and under the same terms, as for `COCCNC(=O)c1nccnc1C(C)NC(=O)c1cc(C(F)(F)F)cc(C(F)(F)F)c1` (stereo not shown) [P.4, 3-[1-[[3,5-bis(trifluoromethyl)benzoyl]amino]ethyl]-N-(2-methoxyethyl)pyrazine-2-carboxamide], the figure is 128 °C; as for `CC(NC(=O)c1cc(C(F)(F)F)cc(C(F)(F)F)c1)c1nccnc1C(=O)N1CCOCC1` (stereo not shown) [P.14, N-[1-[3-(morpholine-4-carbonyl)pyrazin-2-yl]ethyl]-3,5-bis(trifluoromethyl)benzamide], 81 °C; as for `CC(NC(=O)c1cc(C(F)(F)F)cc(C(F)(F)F)c1)c1nccnc1C(=O)NCC#N` (stereo not shown) [P.11, 3-[1-[[3,5-bis(trifluoromethyl)benzoyl]amino]ethyl]-N-(cyanomethyl)pyrazine-2-carboxamide], 193 °C.
Still for that read-out and setting: next, `CCNC(=O)c1nccnc1C(C)NC(=O)c1cc(OCC(F)(F)F)cc(C(F)(F)F)c1` (stereo not shown) [P.8, N-ethyl-3-[1-[[3-(2,2,2-trifluoroethoxy)-5-(trifluoromethyl)benzoyl]amino]ethyl]pyrazine-2-carboxamide]: 136 °C.
`CC(NC(=O)c1cc(C(F)(F)F)cc(C(F)(F)F)c1)c1nccnc1C(=O)Nc1ccc(C#N)cc1` (stereo not shown) [P.12, 3-[1-[[3,5-bis(trifluoromethyl)benzoyl]amino]ethyl]-N-(4-cyanophenyl)pyrazine-2-carboxamide] returned a melting point of 241 °C.
As to `CC(NC(=O)c1cc(C(F)(F)F)cc(C(F)(F)F)c1)c1nccnc1C(=O)Nc1ncccn1` (stereo not shown) [P.7, 3-[1-[[3,5-bis(trifluoromethyl)benzoyl]amino]ethyl]-N-pyrimidin-2-yl-pyrazine-2-carboxamide], the melting point turned out to be 201 °C.
With `C=CCNC(=O)c1nccnc1C(C)NC(=O)c1cc(C(F)(F)F)cc(C(F)(F)F)c1` (stereo not shown) [Compound P6, N-allyl-3-[1-[[3,5-bis(trifluoromethyl)benzoyl]amino]ethyl]pyrazine-2-carboxamide], the percent control (mortality, anti-feedant effect or growth inhibition) at 200 ppm in series [1] is no less than 80%. The percent control (mortality or growth inhibition) at 200 ppm in series [3] is no less than 80%.
